Laboratory results: patent publication US4015002A, “1-Aryl-2-oxo-2,4,5,6,7,7a-hexahydro-indoles, salts, pharmaceutical compositions and methods of use” (Laboratoire Roger Bellon, priority 1974, dated 1977)
In brackets after ≈: the same amount, converted by molar mass. Like-named read-outs stand apart in the source and are kept apart here.

How the values were obtained:
[1] = test system: isolated auricle; assay: Cardiac action on the isolated auricle (Trevan preparation): amplitude of contractions; conditions: arrows for diminution/increase are drawings, 0 = inactive, read-out: Action on the isolated auricle: minimum concentration producing a variation of 20% in amplitude of contractions
Procedure: (§1) This was examined according to known methods in the isolated auricle (Trevan preparation) and in the isolated heart of a rabbit (Langendorf preparation).
Cardiac action of the compounds in question was evaluated according to the amplitude of contractions of the isolated auricle.

[2] = test system: isolated heart of the rabbit; assay: Cardiac action on the isolated heart of a rabbit (Langendorf preparation); conditions: for EC20: Oryctolagus cuniculus, direction arrow is a drawing
Procedure: as §1
In the Langendorf preparation, the action of the compounds was determined from three parameters; the amplitude of contractions, coronary delivery, and rhythm. […] The results are indicated in Table 1; an arrow ↓ indicates a diminution, and an arrow ↑ an augmentation.

[3] = Toxicity, intravenous in the mouse; conditions: in vivo, i.v.
Procedure: The toxicities of the various compound were determined intravenously in the mouse.

[4] = test system: anaethestized dog; assay: Action on femoral delivery, aortal pressure and cardiac rhythm in the anaesthetized dog; format: in vivo; conditions: for Aortal pressure, maximum variation in 30 minutes / Cardiac Rhythm, maximum variation in 30 minutes / Femoral Delivery, maximum variation in 30 minutes: i.v. perfusion over 5 min, dose 1/10 of mouse LD50, percent based on initial values; for Aortal pressure (in words) / Cardiac frequency (in words) / Vasodilator action (in words): anaesthetized dog, i.v.; for Vasodilator action (in words): 1/10 of mouse LD50
Procedure: This was investigated in an anaethestized dog, the compounds under test being administered by intraveneous perfusion (over 5 minutes). The various compounds under test were compared by administering all of them at a dose per kilogram corresponding to 1/10 of the mouse LD50 (I.V.).
Simultaneously were measured: variations of femoral delivery, aortal pressure, and cardiac rhythm. Table II indicates the maximum variations of these different parameters observed over the 30 minutes which followed administration of various compounds. These variations are expressed in percent based on the initial values.

[5] = read-out: Amplitude of contractions: concentration producing a variation of 20%
[6] = read-out: Coronary delivery: concentration producing a variation of 20%
[7] = read-out: Rhythm: concentration producing a variation of 20%

Compound | EC20 [1] | EC20 [2, 5] | LD50 [3] | Aortal pressure, maximum variation in 30 minutes [4] | Cardiac Rhythm, maximum variation in 30 minutes [4] | EC20 [2, 6] | EC20 [2, 7] | Femoral Delivery, maximum variation in 30 minutes [4] | Coronary delivery (in words) [2] | Aortal pressure (in words) [4] | Cardiac frequency (in words) [4] | Vasodilator action (in words) [4]
CCN(CC)CCOc1ccc(N2C(=O)C=C3CCCCC32)cc1 (centres unmarked) [Example 1, 1-[4-(2-diethylaminoethoxy)-phenyl] -2-oxo-2,4,5,6,7,7a-hexahydro-indole] | 20 µg/mL (≈ 60.9 µM) | 5 µg/mL (≈ 15.2 µM) | 150 mg/kg | 0% | 0% |  |  |  |  |  |  | 
CN(C)CCOc1ccc(N2C(=O)C=C3CCCCC32)cc1 (centres unmarked) [Example 5, 1-[4-(2-Dimethylaminoethoxy)-phenyl]-2-oxo-2,4,5,6,7,7a-hexahydro-indole] | 50 µg/mL (≈ 166 µM) | 1 µg/mL (≈ 3.33 µM) | 90 mg/kg | 0% |  | 20 µg/mL (≈ 66.6 µM) | 10 µg/mL (≈ 33.3 µM) | 0% |  |  |  | 
O=C1C=C2CCCCC2N1c1ccc(OCCN2CCCCC2)cc1 (centres unmarked) [Example 6, 1-[4-(2-Piperidinoethoxy)-phenyl]-2-oxo-2,4,5,6,7,7a-hexahydro-indole] | 10 µg/mL (≈ 29.4 µM) | 1 µg/mL (≈ 2.94 µM) | 40 mg/kg | 0% |  | 20 µg/mL (≈ 58.7 µM) | 20 µg/mL (≈ 58.7 µM) | 0% |  |  |  | 
CC(C)N(CCOc1ccc(N2C(=O)C=C3CCCCC32)cc1)C(C)C (centres unmarked) [Example 7, 1-[4-(2Diisopropylaminoethoxy)-phenyl]-2-oxo-2,4,5,6,7,7a-hexahydro-indole] | 10 µg/mL (≈ 28 µM) | 1 µg/mL (≈ 2.8 µM) | 85 mg/kg | 0% | 0% |  | 20 µg/mL (≈ 56.1 µM) |  |  |  |  | 
CN(C)CCCOc1ccc(N2C(=O)C=C3CCCCC32)cc1 (centres unmarked) [Example 8, 1-[4-(3-Dimethylaminopropoxy)-phenyl]-2-oxo-2,4,5,6,7,7 a-hexahydro-indole] | 10 µg/mL (≈ 31.8 µM) | 1 µg/mL (≈ 3.18 µM) | 85 mg/kg | 0% |  |  | 5 µg/mL (≈ 15.9 µM) |  |  |  |  | 
O=C1C=C2CCCCC2N1c1cccc(OCCN2CCOCC2)c1 (centres unmarked) [Example 9, 1-[3-(2-Morpholinoethoxy)-phenyl]-2-oxo-2,4,5,6,7,7a-hexahydro-indole] | 50 µg/mL (≈ 146 µM) | 1 µg/mL (≈ 2.92 µM) | 170 mg/kg | 0% |  | 20 µg/mL (≈ 58.4 µM) |  |  | augmented |  |  | 
O=C1C=C2CCCCC2N1c1cccc(OCCN2CCCCC2)c1 (centres unmarked) [Example 10, 1-[3-(2-piperidinoethoxy)-phenyl]-2-oxo-2,4,5,6,7,7a-hexahydro-indole] | 5 µg/mL (≈ 14.7 µM) | 1 µg/mL (≈ 2.94 µM) | 130 mg/kg |  |  | 20 µg/mL (≈ 58.7 µM) | 20 µg/mL (≈ 58.7 µM) |  |  | hypotension | tachycardia | vasodilators
CCN(CC)CCOc1cccc(N2C(=O)C=C3CCCCC32)c1 (centres unmarked) [Example 11, 1-[3-(2-Diethylaminoethoxy)-phenyl]-2-oxo-2,4,5,6,7,7a-hexahydro-indole] | 10 µg/mL (≈ 30.4 µM) | 2 µg/mL (≈ 6.09 µM) | 90 mg/kg | 0% |  |  | 10 µg/mL (≈ 30.4 µM) |  |  | without modifying aortal pressure | without modifying aortal pressure or cardiac frequency | clearly vasodilators
CN(C)CCOc1cccc(N2C(=O)C=C3CCCCC32)c1 (centres unmarked) [Example 12, 1-[3-(2-Dimethylaminoethoxy)-phenyl]-2-oxo-2,4,5,6,7,7a-hexahydro-indole] | 10 µg/mL (≈ 33.3 µM) | 1 µg/mL (≈ 3.33 µM) | 27.5 mg/kg |  |  |  | 5 µg/mL (≈ 16.6 µM) |  |  | hypotension | tachycardia | vasodilators
CC(C)N(CCOc1cccc(N2C(=O)C=C3CCCCC32)c1)C(C)C (centres unmarked) [Example 13, 1-[3-(2-Diisopropylaminoethoxy)-phenyl]-2-oxo-2,4,5,6,7,7a-hexahydro-indole] | 5 µg/mL (≈ 14 µM) | 1 µg/mL (≈ 2.8 µM) | 55 mg/kg |  |  |  | 20 µg/mL (≈ 56.1 µM) |  |  | hypertensives |  | 
O=C1C=C2CCCCC2N1c1ccc(OCCN2CCCCC2)c(Cl)c1 (centres unmarked) [Example 14, 1-[3-chloro-4-(2-piperidinoethoxy)-phenyl]-2-oxo-2,4,5,6,7,7a-hexahydro-indole] | 10 µg/mL (≈ 26.7 µM) | 1 µg/mL (≈ 2.67 µM) | 25 mg/kg | 0% |  |  | 20 µg/mL (≈ 53.3 µM) |  |  | without modifying aortal pressure | without modifying aortal pressure or cardiac frequency | clearly vasodilators
CCN(CC)CCOc1ccc(N2C(=O)C=C3CCCCC32)cc1Cl (centres unmarked) [Example 16, 1-[3-Chloro-4-(2-diethylaminoethoxy)-phenyl]-2-oxo-2,4,5,6,7,7a-hexahydro-indole] | 5 µg/mL (≈ 13.8 µM) | 1 µg/mL (≈ 2.76 µM) | 22 mg/kg | 0% |  |  | 1 µg/mL (≈ 2.76 µM) |  |  |  |  | 
O=C1C=C2CCCCC2N1c1ccc(OCCN2CCOCC2)c(Cl)c1 (centres unmarked) [Example 17, 1-[3-Chloro-4-(2-morpholinoethoxy)-phenyl]-2-oxo-2,4,5,6,7,7a-hexahydro-indole] |  | 1 µg/mL (≈ 2.65 µM) | 120 mg/kg | 0% |  | 50 µg/mL (≈ 133 µM) | 20 µg/mL (≈ 53.1 µM) |  | augmented |  |  | 
CC(C)N(CCOc1ccc(N2C(=O)C=C3CCCCC32)cc1Cl)C(C)C (centres unmarked) [Example 18, 1-[3-Chloro-4-(2-diisopropylaminoethoxy)-phenyl]-2-oxo-2,4,5,6,7,7a-hexahydro-indole] | 5 µg/mL (≈ 12.8 µM) | 1 µg/mL (≈ 2.56 µM) | 150 mg/kg |  |  |  |  |  |  | hypertensives |  | 
CN(C)CCOc1ccc(N2C(=O)C(c3ccccc3)=C3CCCCC32)cc1 (centres unmarked) [Example 19, 1-[4-(2-Dimethylaminoethoxy)-phenyl]-2-oxo-3-phenyl-2,4,5,6,7,7a-hexahydro-indole] | 20 µg/mL (≈ 53.1 µM) | 1 µg/mL (≈ 2.66 µM) | 10 mg/kg |  |  | 5 µg/mL (≈ 13.3 µM) | 10 µg/mL (≈ 26.6 µM) | 0% | augmented |  |  | 
CCN(CC)CCOc1ccc(N2C(=O)C(c3ccccc3)=C3CCCCC32)cc1 (centres unmarked) [Example 20, 1-[4-(2-diethylaminoethoxy)-phenyl]-2-oxo-3-phenyl-2,4,5,6,7,7a-hexahydro-indole] | 2 µg/mL (≈ 4.94 µM) | 1 µg/mL (≈ 2.47 µM) | 38 mg/kg | 0% |  | 5 µg/mL (≈ 12.4 µM) | 5 µg/mL (≈ 12.4 µM) | 0% | augmented |  |  | 
O=C1C(c2ccccc2)=C2CCCCC2N1c1ccc(OCCN2CCOCC2)cc1 (centres unmarked) [Example 21, 1-[4-(2-morpholinoethoxy)-phenyl]-2-oxo-3-phenyl-2,4,5,6,7,7a-hexahydro-indole] | 20 µg/mL (≈ 47.8 µM) | 1 µg/mL (≈ 2.39 µM) | 55 mg/kg | 0% | 0% | 2 µg/mL (≈ 4.78 µM) | 10 µg/mL (≈ 23.9 µM) |  | augmented |  |  | 
